Test results from patent US20210369853A1, “TARGETED PROTEASE DEGRADATION PLATFORM” (EUBULUS BIOTHERAPEUTICS INC., priority 2018, published 2021).
Where two headings read alike, the source gives them in different places. One block for each compound: values may come before it.

Assays:
Type in all cases: cell-based
[1] = test system: Human Monocytic Leukemia MV4-11; assay: Cell proliferation experiment (Alarm blue, 72 h, EC50)
Method in brief: (§1)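 Growth inhibition over 72 h. Cells were cultured in standard media and passaged at least twice before plating, then treated with a 5-fold compound gradient. EC50 came from Alamar blue fluorescence.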

[2] = test system: Human cervical adenocarcinoma cells Hela; assay: as above; conditions: Homo sapiens
Method in brief: as §1

[3] = test system: Human Colon Cancer HCT-116; assay: as above; conditions: Homo sapiens, HCT-116; HCT116 cells
Method in brief: as §1

[4] = target: T1, BRD4 (Homo sapiens, UniProt O60885); assay: Western blot, protein degradation (DC50)
T1 construct: endogenous in cells
Description: (§2) Cells were treated with the compound for a period of time, after that the cells were collected by centrifugation. After washing with PBS, the cells were lysed by adding RIPA buffer; the cell lysate were added to the loading buffer and then appropriate volume were taken and slowly added to the corresponding wells of the gel plate, and run the SDS-PAGE gel (4%-12%). After running the gel, transferred to the PVDF membrane and sealed with 5% skimmed milk powder at room temperature for 1 hour. The membrane was placed in the primary antibody diluted with 5% skimmed milk powder and shaked slowly overnight at 4° C. After incubation with primary antibody, the membrane was washed 3 times using a TBST shaker; added secondary antibody diluted with 5% skimmed milk powder corresponding to the primary antibody, and shaked slowly at room temperature for 1 hour. After incubation with secondary antibody, the membrane was washed 3 times using the TBST shaker again. The PVDF membrane was flatted in the cassette, the strip was evenly infiltrated with ECL developer solution, and placed in ChemDoc XRS+ gel imager for taking pictures. The intensity of protein bands was analyzed quantitatively using ImageJ software.

[5] = target: T2, PLK1 (Homo sapiens, UniProt P53350); assay: Western blot, protein degradation (DC50)
T2 construct: endogenous in cells
T2 sequence (P53350 whole entry): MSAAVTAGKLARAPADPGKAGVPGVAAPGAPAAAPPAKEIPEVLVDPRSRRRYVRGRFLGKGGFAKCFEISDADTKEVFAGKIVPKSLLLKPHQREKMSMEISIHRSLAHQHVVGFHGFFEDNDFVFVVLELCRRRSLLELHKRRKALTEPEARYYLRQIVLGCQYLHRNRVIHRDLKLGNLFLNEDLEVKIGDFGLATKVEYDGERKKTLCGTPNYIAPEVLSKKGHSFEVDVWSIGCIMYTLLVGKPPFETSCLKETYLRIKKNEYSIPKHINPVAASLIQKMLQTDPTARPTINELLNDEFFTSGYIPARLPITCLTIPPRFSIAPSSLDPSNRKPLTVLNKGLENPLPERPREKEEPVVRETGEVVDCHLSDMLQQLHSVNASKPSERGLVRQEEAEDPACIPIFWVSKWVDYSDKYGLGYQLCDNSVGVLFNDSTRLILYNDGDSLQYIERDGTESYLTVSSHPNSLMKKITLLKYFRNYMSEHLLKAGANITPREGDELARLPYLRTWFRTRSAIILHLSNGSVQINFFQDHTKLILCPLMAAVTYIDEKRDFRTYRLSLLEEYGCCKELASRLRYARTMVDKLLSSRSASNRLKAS
Description: as §2

[6] = Homo sapiens, MV4-11, MV4;11 cells
[7] = 24 h, western blot, read-out: BRD4 DC50 (24 h)
[8] = 24 h, western blot, read-out: PLK1 DC50 (24 h)

SMILES: CC[C@@H]1c2nncn2-c2cnc(Nc3ccc(C(=O)NCCOCC(=O)N[C@H](C(=O)N4C[C@H](O)C[C@H]4C(=O)NCc4ccc(-c5scnc5C)cc4)C(C)(C)C)cc3OC)nc2N1C1CCCC1 [UB-180540]
- EC50 [1, 6]: > 1000 nM
- EC50 [2]: > 1000 nM

SMILES: CC[C@@H]1c2c(C#N)ncn2-c2cnc(Nc3ccc(C(=O)NCCOCC(=O)N[C@H](C(=O)N4C[C@H](O)C[C@H]4C(=O)NCc4ccc(-c5scnc5C)cc4)C(C)(C)C)cc3OC)nc2N1C1CCCC1 [UB-180544]
- EC50 [1, 6]: 10 to 100 nM
- EC50 [2]: > 1000 nM

SMILES: CC[C@@H]1c2nncn2-c2cnc(Nc3ccc(C(=O)NCCOCCOCCOCC(=O)N[C@H](C(=O)N4C[C@H](O)C[C@H]4C(=O)NCc4ccc(-c5scnc5C)cc4)C(C)(C)C)cc3OC)nc2N1C1CCCC1 [UB-180516]
- EC50 [1, 6]: > 1000 nM
- EC50 [2]: > 1000 nM

SMILES: CC[C@@H]1c2c(C#N)ncn2-c2cnc(Nc3ccc(C(=O)NCCCCOCC(=O)Nc4cccc5c4CN(C4CCC(=O)NC4=O)C5=O)cc3OC)nc2N1C1CCCC1 (stereo partly shown) [UB-180512]
- EC50 [1, 6]: 100 to 1000 nM
- EC50 [2]: > 1000 nM

SMILES: CC[C@@H]1c2c(C#N)ncn2-c2cnc(Nc3ccc(C(=O)NCCCOCC(=O)N[C@H](C(=O)N4C[C@H](O)C[C@H]4C(=O)NCc4ccc(-c5scnc5C)cc4)C(C)(C)C)cc3OC)nc2N1C1CCCC1 [UB-180542]
- EC50 [1, 6]: 100 to 1000 nM
- EC50 [2]: > 1000 nM

SMILES: CC[C@@H]1c2nncn2-c2cnc(Nc3ccc(C(=O)NCCOCCOCCOCCOCCC(=O)Nc4cccc5c4CN(C4CCC(=O)NC4=O)C5=O)cc3OC)nc2N1C1CCCC1 (stereo partly shown) [UB-180562]
- EC50 [1, 6]: > 1000 nM
- EC50 [2]: > 1000 nM

SMILES: CC[C@@H]1C(=O)N(C)c2cnc(Nc3ccc(C(=O)NCCOCCOCCOCCNCCCC(=O)Nc4cccc5c4CN(C4CCC(=O)NC4=O)C5=O)cc3OC)nc2N1C1CCCC1 (stereo partly shown) [UB-180647]
- EC50 [3]: > 1000 nM
- EC50 ([1]; MV4;11 cells): 10 to 100 nM
- DC50 [4, 7]: < 10 nM
- DC50 [5, 8]: 10 to 100 nM

SMILES: CC[C@@H]1c2c(C#N)ncn2-c2cnc(Nc3ccc(C(=O)NCCOCCOCCOCCC(=O)Nc4cccc5c4CN(C4CCC(=O)NC4=O)C5=O)cc3OC)nc2N1C1CCCC1 (stereo partly shown) [UB-180548]
- EC50 [1, 6]: > 1000 nM
- EC50 [2]: > 1000 nM

SMILES: CC[C@@H]1c2nncn2-c2cnc(Nc3ccc(C(=O)NCCOCCOCCOCCC(=O)Nc4cccc5c4CN(C4CCC(=O)NC4=O)C5=O)cc3OC)nc2N1C1CCCC1 (stereo partly shown) [UB-180549]
- EC50 [1, 6]: > 1000 nM
- EC50 [2]: > 1000 nM

SMILES: CC[C@@H]1c2c(C#N)ncn2-c2cnc(Nc3ccc(C(=O)NCCCC(=O)N[C@H](C(=O)N4C[C@H](O)C[C@H]4C(=O)NCc4ccc(-c5scnc5C)cc4)C(C)(C)C)cc3OC)nc2N1C1CCCC1 [UB-180543]
- EC50 [1, 6]: 10 to 100 nM
- EC50 [2]: > 1000 nM

SMILES: CC[C@@H]1c2nncn2-c2cnc(Nc3ccc(C(=O)NCCCOCC(=O)Nc4cccc5c4CN(C4CCC(=O)NC4=O)C5=O)cc3OC)nc2N1C1CCCC1 (stereo partly shown) [UB-180510]
- EC50 [1, 6]: > 1000 nM
- EC50 [2]: > 1000 nM

SMILES: CC[C@@H]1c2nncn2-c2cnc(Nc3ccc(C(=O)NCCOCCOCCOCCC(=O)N[C@H](C(=O)N4C[C@H](O)C[C@H]4C(=O)NCc4ccc(-c5scnc5C)cc4)C(C)(C)C)cc3OC)nc2N1C1CCCC1 [UB-180522]
- EC50 [1, 6]: 100 to 1000 nM
- EC50 [2]: > 1000 nM

SMILES: CC[C@@H]1C(=O)N(C)c2cnc(Nc3ccc(C(=O)NCCOCCOCCOCCNCCCC(=O)Nc4cccc5c4CN(C4CCC(=O)NC4=O)C5=O)cc3OC)nc2N1C1CCCC1 (stereo partly shown) [UB-180636]
- EC50 ([1]; Homo sapiens, MV4;11 cells): 10 to 100 nM
- DC50 ([4]; 6 h, read-out: BRD4 DC50 (6 h)): 10 to 100 nM
- DC50 ([5]; 6 h, read-out: PLK1 DC50 (6 h)): 10 to 100 nM

Next, values leading:

- EC50 [1, 6]: 100 to 1000 nM
- EC50 [2]: > 1000 nM
SMILES: CC[C@@H]1c2nncn2-c2cnc(Nc3ccc(C(=O)NCCOCCOCCOCCOCCC(=O)N[C@H](C(=O)N4C[C@H](O)C[C@H]4C(=O)NCc4ccc(-c5scnc5C)cc4)C(C)(C)C)cc3OC)nc2N1C1CCCC1 [UB-180553]

- EC50 [1, 6]: 100 to 1000 nM
- EC50 [2]: > 1000 nM
SMILES: CC[C@@H]1c2c(C#N)ncn2-c2cnc(Nc3ccc(C(=O)NCCCC(=O)Nc4cccc5c4CN(C4CCC(=O)NC4=O)C5=O)cc3OC)nc2N1C1CCCC1 (stereo partly shown) [UB-180537]

- EC50 [1, 6]: 10 to 100 nM
- EC50 [2]: > 1000 nM
SMILES: CC[C@@H]1c2c(C#N)ncn2-c2cnc(Nc3ccc(C(=O)NCCOCCOCCOCC(=O)N[C@H](C(=O)N4C[C@H](O)C[C@H]4C(=O)NCc4ccc(-c5scnc5C)cc4)C(C)(C)C)cc3OC)nc2N1C1CCCC1 [UB-180519]

- EC50 [1, 6]: 10 to 100 nM
- EC50 [2]: > 1000 nM
SMILES: CC[C@@H]1c2nncn2-c2cnc(Nc3ccc(C(=O)NCCCCOCC(=O)N[C@H](C(=O)N4C[C@H](O)C[C@H]4C(=O)NCc4ccc(-c5scnc5C)cc4)C(C)(C)C)cc3OC)nc2N1C1CCCC1 [UB-180555]

- EC50 [1, 6]: > 1000 nM
- EC50 [2]: > 1000 nM
SMILES: CC[C@@H]1c2nncn2-c2cnc(Nc3ccc(C(=O)NCCOCCOCC(=O)Nc4cccc5c4CN(C4CCC(=O)NC4=O)C5=O)cc3OC)nc2N1C1CCCC1 (stereo partly shown) [UB-180556]

- EC50 [1, 6]: > 1000 nM
- EC50 [2]: > 1000 nM
SMILES: CC[C@@H]1c2nncn2-c2cnc(Nc3ccc(C(=O)NCCCC(=O)Nc4cccc5c4CN(C4CCC(=O)NC4=O)C5=O)cc3OC)nc2N1C1CCCC1 (stereo partly shown) [UB-180521]

- EC50 [1, 6]: 100 to 1000 nM
- EC50 [2]: > 1000 nM
SMILES: CC[C@@H]1c2nncn2-c2cnc(Nc3ccc(C(=O)NCCCOCC(=O)N[C@H](C(=O)N4C[C@H](O)C[C@H]4C(=O)NCc4ccc(-c5scnc5C)cc4)C(C)(C)C)cc3OC)nc2N1C1CCCC1 [UB-180541]

- EC50 [1, 6]: 100 to 1000 nM
- EC50 [2]: > 1000 nM
SMILES: CC[C@@H]1c2nncn2-c2cnc(Nc3ccc(C(=O)NCCOCCOCC(=O)N[C@H](C(=O)N4C[C@H](O)C[C@H]4C(=O)NCc4ccc(-c5scnc5C)cc4)C(C)(C)C)cc3OC)nc2N1C1CCCC1 [UB-180564]

- EC50 [1, 6]: 100 to 1000 nM
- EC50 [2]: > 1000 nM
SMILES: CC[C@@H]1c2c(C#N)ncn2-c2cnc(Nc3ccc(C(=O)NCCOCCOCC(=O)Nc4cccc5c4CN(C4CCC(=O)NC4=O)C5=O)cc3OC)nc2N1C1CCCC1 (stereo partly shown) [UB-180557]

- EC50 [1, 6]: 100 to 1000 nM
- EC50 [2]: > 1000 nM
SMILES: CC[C@@H]1c2c(C#N)ncn2-c2cnc(Nc3ccc(C(=O)NCCOCCOCCOCC(=O)Nc4cccc5c4CN(C4CCC(=O)NC4=O)C5=O)cc3OC)nc2N1C1CCCC1 (stereo partly shown) [UB-180545]

- EC50 [1, 6]: 100 to 1000 nM
- EC50 [2]: > 1000 nM
SMILES: CC[C@@H]1c2c(C#N)ncn2-c2cnc(Nc3ccc(C(=O)NCCOCCOCCOCCOCCC(=O)N[C@H](C(=O)N4C[C@H](O)C[C@H]4C(=O)NCc4ccc(-c5scnc5C)cc4)C(C)(C)C)cc3OC)nc2N1C1CCCC1 [UB-180552]

- EC50 [1, 6]: 10 to 100 nM
- EC50 [2]: > 1000 nM
SMILES: CC[C@@H]1c2nncn2-c2cnc(Nc3ccc(C(=O)NCCCC(=O)N[C@H](C(=O)N4C[C@H](O)C[C@H]4C(=O)NCc4ccc(-c5scnc5C)cc4)C(C)(C)C)cc3OC)nc2N1C1CCCC1 [UB-180539]

- EC50 [1, 6]: > 1000 nM
- EC50 [2]: > 1000 nM
SMILES: CC[C@@H]1c2c(C#N)ncn2-c2cnc(Nc3ccc(C(=O)NCCOCCOCCOCCOCCC(=O)Nc4cccc5c4CN(C4CCC(=O)NC4=O)C5=O)cc3OC)nc2N1C1CCCC1 (stereo partly shown) [UB-180551]

- EC50 [1, 6]: > 1000 nM
- EC50 [2]: > 1000 nM
SMILES: CC[C@@H]1c2nncn2-c2cnc(Nc3ccc(C(=O)NCCOCCOCCOCC(=O)Nc4cccc5c4CN(C4CCC(=O)NC4=O)C5=O)cc3OC)nc2N1C1CCCC1 (stereo partly shown) [UB-180546]

- EC50 [1, 6]: > 1000 nM
- EC50 [2]: > 1000 nM
SMILES: CC[C@@H]1c2nncn2-c2cnc(Nc3ccc(C(=O)NCCOCCOCCC(=O)Nc4cccc5c4CN(C4CCC(=O)NC4=O)C5=O)cc3OC)nc2N1C1CCCC1 (stereo partly shown) [UB-180547]

- EC50 [1, 6]: 100 to 1000 nM
- EC50 [2]: > 1000 nM
SMILES: CC[C@@H]1c2c(C#N)ncn2-c2cnc(Nc3ccc(C(=O)NCCOCCOCC(=O)N[C@H](C(=O)N4C[C@H](O)C[C@H]4C(=O)NCc4ccc(-c5scnc5C)cc4)C(C)(C)C)cc3OC)nc2N1C1CCCC1 [UB-180563]

- EC50 [1, 6]: 10 to 100 nM
- DC50 ([4]; 24 h, read-out: BRD4 DC50 (24 h)): < 10 nM
- DC50 ([5]; 24 h, read-out: PLK1 DC50 (24 h)): 10 to 100 nM
SMILES: CC[C@@H]1C(=O)N(C)c2cnc(Nc3ccc(C(=O)NCCCNCCCCCCC(=O)Nc4cccc5c4CN(C4CCC(=O)NC4=O)C5=O)cc3OC)nc2N1C1CCCC1 (stereo partly shown) [UB-180631]

- EC50 [1, 6]: 10 to 100 nM
- DC50 [4, 7]: < 10 nM
- DC50 [5, 8]: 10 to 100 nM
SMILES: CC[C@@H]1C(=O)N(C)c2cnc(Nc3ccc(C(=O)NCCOCCOCCOCCNCCCCC(=O)Nc4cccc5c4CN(C4CCC(=O)NC4=O)C5=O)cc3OC)nc2N1C1CCCC1 (stereo partly shown) [UB-180666]
